{"source": "the NIST ThermoML archive (doi:10.1021/je0602115)", "note": "“And” between values parts separate entries of the source, which are not always exact repeats. Equal entries are not always repeated. Numbers after ± are expanded uncertainties."}
{"conditions": "313.15 K; Liquid; Closed cell (Static) method"}
{"smiles": "CCOC(C)(C)C", "note": "[2-ethoxy-2-methylpropane]", "vapor or sublimation pressure": "31.62 ± 0.12 kPa and 31.63 ± 0.12 kPa and 31.64 ± 0.12 kPa"}
{"smiles": "CCCCCCC", "note": "[heptane]", "vapor or sublimation pressure": "12.32 ± 0.056 kPa and 12.33 ± 0.056 kPa and 12.31 ± 0.056 kPa"}
{"smiles": "Cc1ccccc1", "note": "[toluene]", "vapor or sublimation pressure": "7.88 ± 0.041 kPa [middle of 4 runs]"}
